Results: US11040959B2, “Diprovocims: a new and potent class of TLR agonists” (The Scripps Research Institute, priority 2016, dated 2021)
Like-named read-outs stand apart in the source and are kept apart here.

Assays:
[1] = system: differentiated human THP-1 cells; assay: stimulated release of TNF-α from differentiated human THP-1 cells (ELISA, dose-response); format: cell-based; conditions: for EC50: Homo sapiens, read-out: EC50 (nM) (THP-1)
Description: A screening campaign was conducted with nearly 100,000 compounds [(a) Whitby et al., Acc. Chem. Res. 2012, 45:1698-1709; and (b) Boger et al., Angew. Chem. Int. Ed. 2003, 42:4138-4176], using a newly developed functional assay that measured the stimulated release of TNF-α from treated human THP-1 cells partially differentiated along the macrophage line [unpublished results of the inventors and co-workers]. […] The libraries screened in the efforts represent a unique compound collection populated by nontraditional compounds [(a) Whitby et al., Acc. Chem. Res. 2012, 45:1698-1709; and (b) Boger et al., Angew. Chem. Int. Ed. 2003, 42:4138-4176] designed to target protein-protein [(a) Shaginian et al., J. Am. Chem. Soc. 2009, 131:5564-5572; and (b) Whitby et al., J. Am. Chem. Soc. 2011, 133:10184-10194] or protein-DNA interactions [Stover et al., J. Am. Chem. Soc. 2009, 131:3342-3348] as well as the major enzyme classes [Otrubova et al., Bioorg. Med. Chem. Lett. 2014, 24:3807-3813].
Hits were confirmed in an ELISA assay for stimulated TNF-α release from human PMA differentiated THP-1 cells and this assay was used for establishing dose-response curves and measured EC50 values.

mouse macrophages = assay: stimulated release of TNF-α from mouse macrophages; format: cell-based; conditions: Macrophage, read-out: EC50 (nM) (mouse)
Description: EC50 values are derived from dose-response curves for the stimulated release of TNF-α from differentiated THP-1 cells or mouse macrophages are shown beneath each appropriate structural formula of Compounds 8-12. Half maximal effective concentration (EC50) refers to the concentration of a drug, antibody or toxicant that induces a response halfway between the baseline and maximum after a specified exposure time. It is commonly used as a measure of a drug's potency.

[2] = THP-1, Table 1, TNF-α release from human THP-1 cells
[3] = Table 1, TNF-α release from mouse macrophages
[4] = THP-1, Table 2, TNF-α release from human THP-1 cells
[5] = Table 2, TNF-α release from mouse macrophages
[6] = THP-1, Table 3, TNF-α release from human THP-1 cells
[7] = Table 3, TNF-α release from mouse macrophages

Row | EC50 [1, 2] [nM] | EC50 (mouse macrophages; [3]) [nM] | EC50 [1, 4] [nM] | EC50 (mouse macrophages; [5]) [nM] | SMILES | further results
1 | > 5000 | > 5000 | – | – | O=C(N[C@H]1C[C@@H]1c1ccccc1)[C@@H]1CN(C(=O)/C=C/C(=O)N2C[C@@H](C(=O)N[C@H]3C[C@@H]3c3ccccc3)[C@H](C(=O)N[C@H]3C[C@@H]3c3ccccc3)C2)C[C@H]1C(=O)N[C@H]1C[C@@H]1c1ccccc1 [Compound 36, (3S,3′S,4S,4′S)-1,1′-Fumaroyl-bis(N^3,N^4-bis((1S,2R)-2-phenylcyclopropyl)pyrrolidine-3,4-dicarboxamide)] | –
2 | > 5000 | > 5000 | – | – | O=C(N[C@H]1C[C@@H]1c1ccccc1)[C@@H]1CN(C(=O)C/C=C/CC(=O)N2C[C@@H](C(=O)N[C@H]3C[C@@H]3c3ccccc3)[C@H](C(=O)N[C@H]3C[C@@H]3c3ccccc3)C2)C[C@H]1C(=O)N[C@H]1C[C@@H]1c1ccccc1 [Compound 37, (3S,3′S,4S,4′S)-1,1′-((E)-Hex-3-enedoyl)bis-(N^3,N^4-bis((1S,2R)-2-phenylcyclopropyl)pyrrolidine-3,4-dicarboxamide)] | –
3 | > 5000 | > 5000 | – | – | O=C(N[C@H]1C[C@@H]1c1ccccc1)[C@@H]1CN(C(=O)c2cccc(C(=O)N3C[C@@H](C(=O)N[C@H]4C[C@@H]4c4ccccc4)[C@H](C(=O)N[C@H]4C[C@@H]4c4ccccc4)C3)c2)C[C@H]1C(=O)N[C@H]1C[C@@H]1c1ccccc1 [Compound 38, (3S,3′S,4S,4′S)-1,1′-Isophthaloyl-bis-(N^3,N^4-bis((1S,2R)-2-phenylcyclopropyl)-pyrrolidine-3,4-dicarboxamide)] | –
4 | 90 | 2300 | – | – | O=C(N[C@H]1C[C@@H]1c1ccccc1)[C@@H]1CN(C(=O)c2ccc(-c3ccc(C(=O)N4C[C@@H](C(=O)N[C@H]5C[C@@H]5c5ccccc5)[C@H](C(=O)N[C@H]5C[C@@H]5c5ccccc5)C4)cc3)cc2)C[C@H]1C(=O)N[C@H]1C[C@@H]1c1ccccc1 [Compound 39, (3S,3′S,4S,4′S)-1,1′-(4,4′-Biphenyldicarboxoyl)-bis(N^3,N^4-bis((1S,2R)-2-phenylcyclopropyl)-pyrrolidine-3,4-dicarboxamide)] | –
5 | > 5000 | > 5000 | – | – | O=C(N[C@H]1C[C@@H]1c1ccccc1)[C@@H]1CN(C(=O)COCC(=O)N2C[C@@H](C(=O)N[C@H]3C[C@@H]3c3ccccc3)[C@H](C(=O)N[C@H]3C[C@@H]3c3ccccc3)C2)C[C@H]1C(=O)N[C@H]1C[C@@H]1c1ccccc1 [Compound 40, (3S,3′S,4S,4′S)-1,1′-(2,2′-Oxybis-(acetyl))bis-(N^3,N^4-bis((1S,2R)-2-phenylcyclopropyl)pyrrolidine-3,4-dicarboxamide)] | –
6 | > 5000 | > 5000 | – | – | O=C(N[C@H]1C[C@@H]1c1ccccc1)[C@@H]1CN(C(=O)[C@@H]2CCC[C@H](C(=O)N3C[C@@H](C(=O)N[C@H]4C[C@@H]4c4ccccc4)[C@H](C(=O)N[C@H]4C[C@@H]4c4ccccc4)C3)C2)C[C@H]1C(=O)N[C@H]1C[C@@H]1c1ccccc1 [Compound 41, (3S,3′S,4S,4′S)-1,1′-(cis-1,3-Cyclohexane-dicarbonyl)bis(N^3,N^4-bis((1S,2R)-2-phenyl-cyclopropyl)pyrrolidine-3,4-dicarboxamide)] | –
7 | > 5000 | > 5000 | – | – | O=C(N[C@H]1C[C@@H]1c1ccccc1)[C@@H]1CN(C(=O)[C@H]2CC[C@H](C(=O)N3C[C@@H](C(=O)N[C@H]4C[C@@H]4c4ccccc4)[C@H](C(=O)N[C@H]4C[C@@H]4c4ccccc4)C3)CC2)C[C@H]1C(=O)N[C@H]1C[C@@H]1c1ccccc1 [Compound 42, (3S,3′S,4S,4′S)-1,1′-(trans-1,4-Cyclohexane-dicarbonyl)bis(N^3,N^4-bis((1S,2R)-2-phenyl-cyclopropyl)pyrrolidine-3,4-dicarboxamide)] | –
8 | > 5000 | > 5000 | – | – | O=C(N[C@H]1C[C@@H]1c1ccccc1)[C@@H]1CN(C(=O)[C@H]2CC[C@@H](C(=O)N3C[C@@H](C(=O)N[C@H]4C[C@@H]4c4ccccc4)[C@H](C(=O)N[C@H]4C[C@@H]4c4ccccc4)C3)CC2)C[C@H]1C(=O)N[C@H]1C[C@@H]1c1ccccc1 [Compound 43, (3S,3′S,4S,4′S)-1,1′-(cis-1,4-Cyclohexane-dicarbonyl)bis(N^3,N^4-bis((1S,2R)-2-phenylcyclopropyl)-pyrrolidine-3,4-dicarboxamide)] | –
9 | – | – | 2 | 380 | O=C(N[C@H]1C[C@@H]1c1ccccc1)[C@@H]1CN(C(=O)c2ccc3cc(C(=O)N4C[C@@H](C(=O)N[C@H]5C[C@@H]5c5ccccc5)[C@H](C(=O)N[C@H]5C[C@@H]5c5ccccc5)C4)ccc3c2)C[C@H]1C(=O)N[C@H]1C[C@@H]1c1ccccc1 [Compound 44, (3S,3′S,4S,4′S)-1,1′-(Naphthalene-2,6-dicarbonyl)bis(N^3,N^4-bis((1S,2R)-2-phenylcyclopropyl)-pyrrolidine-3,4-dicarboxamide)] | fold less active/potent than diprovocim-1 (3) ([1]; human THP-1 cells): > 10 fold
10 | – | – | > 5000 | > 5000 | O=C(N[C@H]1C[C@@H]1c1ccccc1)[C@@H]1CN(C(=O)c2ccc(C(=O)N3C[C@@H](C(=O)N[C@H]4C[C@@H]4c4ccccc4)[C@H](C(=O)N[C@H]4C[C@@H]4c4ccccc4)C3)c3ccccc23)C[C@H]1C(=O)N[C@H]1C[C@@H]1c1ccccc1 [Compound 45, (3S,3′S,4S,4′S)-1,1′-(Naphthalene-1,4-dicarbonyl)bis(N^3,N^4-bis((1S,2R)-2-phenylcyclopropyl)-pyrrolidine-3,4-dicarboxamide)] | –
11 | – | – | > 5000 | > 5000 | O=C(N[C@H]1C[C@@H]1c1ccccc1)[C@@H]1CN(C(=O)Cc2cccc(CC(=O)N3C[C@@H](C(=O)N[C@H]4C[C@@H]4c4ccccc4)[C@H](C(=O)N[C@H]4C[C@@H]4c4ccccc4)C3)c2)C[C@H]1C(=O)N[C@H]1C[C@@H]1c1ccccc1 [Compound 46, (3S,3′S,4S,4′S)-1,1′-((1,3-Phenylene)diacetyl)-bis(N^3,N^4-bis((1S,2R)-2-phenylcyclopropyl)-pyrrolidine-3,4-dicarboxamide)] | –
12 | – | – | > 5000 | > 5000 | O=C(N[C@H]1C[C@@H]1c1ccccc1)[C@@H]1CN(C(=O)c2cccc3c(C(=O)N4C[C@@H](C(=O)N[C@H]5C[C@@H]5c5ccccc5)[C@H](C(=O)N[C@H]5C[C@@H]5c5ccccc5)C4)cccc23)C[C@H]1C(=O)N[C@H]1C[C@@H]1c1ccccc1 [Compound 47, (3S,3′S,4S,4′S)-1,1′-(Naphthalene-1,5-dicarbonyl)bis(N^3,N^4-bis((1S,2R)-2-phenylcyclopropyl)-pyrrolidine-3,4-dicarboxamide)] | –
13 | – | – | > 5000 | > 5000 | O=C(N[C@H]1C[C@@H]1c1ccccc1)[C@@H]1CN(C(=O)Cc2ccc(CC(=O)N3C[C@@H](C(=O)N[C@H]4C[C@@H]4c4ccccc4)[C@H](C(=O)N[C@H]4C[C@@H]4c4ccccc4)C3)cc2)C[C@H]1C(=O)N[C@H]1C[C@@H]1c1ccccc1 [Compound 48, (3S,3′S,4S,4′S)-1,1′-((1,4-Phenylene)diacetyl)-bis(N^3,N^4-bis((1S,2R)-2-phenylcyclopropyl)-pyrrolidine-3,4-dicarboxamide)] | –
14 | – | – | – | – | O=C(N[C@H]1C[C@@H]1c1ccccc1)[C@@H]1CN(C(=O)c2ccc(C(=O)N3C[C@@H](C(=O)N[C@H]4C[C@@H]4c4ccccc4)[C@H](C(=O)N[C@H]4C[C@@H]4c4ccccc4)C3)s2)C[C@H]1C(=O)N[C@H]1C[C@@H]1c1ccccc1 [Compound 49, (3S,3′S,4S,4′S)-1,1′-(Thiophene-2,5-dicarbonyl)-bis(N^3,N^4-bis((1S,2R)-2-phenylcyclopropyl)-pyrrolidine-3,4-dicarboxamide)] | EC50 [1, 6]: 350 nM; EC50 (mouse macrophages; [7]): > 5000 nM
15 | – | – | – | – | O=C(N[C@H]1C[C@@H]1c1ccccc1)[C@@H]1CN(C(=O)c2cnc(C(=O)N3C[C@@H](C(=O)N[C@H]4C[C@@H]4c4ccccc4)[C@H](C(=O)N[C@H]4C[C@@H]4c4ccccc4)C3)cn2)C[C@H]1C(=O)N[C@H]1C[C@@H]1c1ccccc1 [Compound 50, (3S,3′S,4S,4′S)-1,1′-(Pyrazine-2,5-dicarbonyl)-bis(N^3,N^4-bis((1S,2R)-2-phenylcyclopropyl)-pyrrolidine-3,4-dicarboxamide)] | EC50 [1, 6]: 130 nM; EC50 (mouse macrophages; [7]): > 5000 nM
16 | – | – | – | – | O=C(N[C@H]1C[C@@H]1c1ccccc1)[C@@H]1CN(C(=O)c2ccc(C(=O)N3C[C@@H](C(=O)N[C@H]4C[C@@H]4c4ccccc4)[C@H](C(=O)N[C@H]4C[C@@H]4c4ccccc4)C3)nc2)C[C@H]1C(=O)N[C@H]1C[C@@H]1c1ccccc1 [Compound 51, (3S,3′S,4S,4′S)-1,1′-(Pyridine-2,5-dicarbonyl)-bis(N^3,N^4-bis((1S,2R)-2-phenylcyclopropyl)-pyrrolidine-3,4-dicarboxamide)] | EC50 [1, 6]: 4 nM; EC50 (mouse macrophages; [7]): 270 nM
